Where two headings read alike, the source gives them in different places.
Legend:
MDA-MB-231/ATCC = assay: SRB anticancer assay, breast; type: cell-based, human; design: Log10GI50: unit not given here; details: for GI50: 48 h; for Log10GI50: MDA-MB-231/ATCC, present compounds
KM12 = assay: SRB anticancer assay, colon; type: cell-based, human; details: Homo sapiens, KM12, 48 h
T-47D = assay: SRB anticancer assay, breast; type: cell-based; details: Homo sapiens, T47D, 48 h
OVCAR-4 = assay: SRB anticancer assay, ovarian; type: cell-based, human; details: Homo sapiens, OVCAR-4, 48 h
NCI-H23 = assay: SRB anticancer assay, non-small lung; type: cell-based, human; details: for GI50: Homo sapiens, NCI-H23, 48 h; for Log10GI50: NCI-H23, present compounds
ACHN = assay: SRB anticancer assay, renal; type: cell-based, human; design: Log10GI50: unit not given here; details: for GI50: Homo sapiens, 48 h; for Log10GI50: present compounds
SN12C = assay: SRB anticancer assay, renal; type: cell-based, human; design: Log10GI50: unit not given here; details: for GI50: Homo sapiens, 48 h; for Log10GI50: present compounds
[1] = tested on: MCF-7 (Breast carcinoma) cells; assay: Cell cycle distribution by flow cytometry (FACS); type: cell-based; details: MCF-7 cells, 2 μM, 24h
Procedure: FIG. 1 represents FACS analysis of cell cycle distribution of MCF-7 cells after treatment with compounds CA-4, 21a, 21d, 4c, 6d, 6e, 6f, 7d, 7h and 7j at 2 μM concentration for 24h and control cells are the cells treated with DMSO (0.25%).
In order to investigate the mechanism underlying the anti-proliferative effect of the compounds the cell cycle distribution was analyzed in K562 (Leukemia) and MCF-7 (Breast carcinoma) cell lines by flow cytometry. Compounds CA-4, 21a, 21d, 4c, 6d, 6e, 6f, 7d, 7h and 7j have shown 1.72%, 14%, 12%, 14%, 12%, 14%, 14%, 16%, 16% &12% in K562 cells and 49.63%, 21%, 20%, 18%, 21%, 21%, 21%, 24%, 23% and 23% in MCF-7 cell line respectively. […] Thus compound 7d was considered for further studies (FIG. 1).

SF-268 = assay: SRB anticancer assay, CNS; type: cell-based, human; design: Log10GI50: unit not given here; details: for GI50: Homo sapiens, SF-268, 48 h; for Log10GI50: SF-268, present compounds
K-562 = assay: SRB anticancer assay, leukemia; type: cell-based, human; design: Log10GI50: unit not given here; details: for GI50: Homo sapiens, K562, K-562, 48 h; for Log10GI50: K-562, present compounds
SK-MEL-5 = assay: SRB anticancer assay, melanoma; type: cell-based, human; details: Homo sapiens, SK-MEL-5, 48 h
SK-MEL-28 = assay: SRB anticancer assay, melanoma; type: cell-based, human; design: Log10GI50: unit not given here; details: for GI50: Homo sapiens, SK-MEL-28, 48 h; for Log10GI50: SK-MEL-28, present compounds
OVCAR-8 = assay: SRB anticancer assay, ovarian; type: cell-based, human; design: Log10GI50: unit not given here; details: for GI50: Homo sapiens, OVCAR-8, 48 h; for Log10GI50: OVCAR-8, present compounds
SF-539 = assay: SRB anticancer assay, CNS; type: cell-based, human; design: Log10GI50: unit not given here; details: for GI50: Homo sapiens, SF-539, 48 h; for Log10GI50: SF-539, present compounds
RXF 393 = assay: SRB anticancer assay, renal; type: cell-based, human; design: Log10GI50: unit not given here; details: for GI50: Homo sapiens, RXF 393, 48 h; for Log10GI50: RXF 393, present compounds
U251 = assay: SRB anticancer assay, CNS; type: cell-based, human; design: Log10GI50: unit not given here; details: for Log10GI50: U251, present compounds
HCT-116 = assay: SRB anticancer assay, colon; type: cell-based, human; details: Homo sapiens, HCT-116, 48 h
A498 = assay: SRB anticancer assay, renal; type: cell-based, human; design: Log10GI50: unit not given here; details: for Log10GI50: A498, present compounds; for GI50: Homo sapiens, A498, 48 h
SK-OV-3 = assay: SRB anticancer assay, ovarian; type: cell-based, human; details: Homo sapiens, SK-OV-3, 48 h
UO-31 = assay: SRB anticancer assay, renal; type: cell-based, human; design: Log10GI50: unit not given here; details: for GI50: Homo sapiens, UO-31, 48 h; for Log10GI50: UO-31, present compounds
NCI-H226 = assay: SRB anticancer assay, non-small lung; type: cell-based, human; details: Homo sapiens, NCI-H226, 48 h
NCI-H322M = assay: SRB anticancer assay, non-small lung; type: cell-based, human; details: Homo sapiens, 48 h
NCI/ADR-RES = assay: SRB anticancer assay, ovarian; type: cell-based, human; design: Log10GI50: unit not given here; details: for GI50: Homo sapiens, NCI/ADR-RES, 48 h; for Log10GI50: present compounds
BT-549 = assay: SRB anticancer assay, breast; type: cell-based, human; design: Log10GI50: unit not given here; details: for Log10GI50: BT-549, present compounds; for GI50: Homo sapiens, BT-549, 48 h
HL-60 (TB) = assay: SRB anticancer assay, leukemia; type: cell-based, human; design: Log10GI50: unit not given here; details: for Log10GI50: HL-60(TB), present compounds; for GI50: Homo sapiens, HL-60, 48 h
UACC-257 = assay: SRB anticancer assay, melanoma; type: cell-based, human; details: for GI50: Homo sapiens, UACC-257, 48 h; for Log10GI50: UACC-257, present compounds
NCI-H460 = assay: SRB anticancer assay, non-small lung; type: cell-based, human; details: Homo sapiens, NCI-H460, 48 h
SNB-19 = assay: SRB anticancer assay, CNS; type: cell-based, human; design: Log10GI50: unit not given here; details: for GI50: Homo sapiens, SNB-19, 48 h; for Log10GI50: SNB-19, present compounds
OVCAR-5 = assay: SRB anticancer assay, ovarian; type: cell-based, human; details: Homo sapiens, OVCAR-5, 48 h
OVCAR-3 = assay: SRB anticancer assay, ovarian; type: cell-based, human; design: Log10GI50: unit not given here; details: for GI50: Homo sapiens, OVCAR-3, 48 h; for Log10GI50: OVCAR-3, present compounds
SR = assay: SRB anticancer assay, leukemia; type: cell-based, human; details: Homo sapiens, 48 h
[2] = Homo sapiens, MDA-MB-231, 48 h, MDA-MB-231/ATCC (row head MDA-MB-), read-out: GI50
[3] = NCI/ADR-RES (row head NCI/ADR-)
[4] = listed as head printed RES (second line of NCI/ADR-RES)

SMILES: COc1cc(OC)cc(-c2cncn2-c2ccc(-c3nc4cc(OC)c(OC)c(OC)c4s3)cc2)c1 [Compound 7d, 2-(4-(5-(3,5-Dimethoxyphenyl)-1H-imidazol-1-yl)phenyl)-5,6,7-trimethoxybenzo[d]thiazole]
- GI50 (MDA-MB-231/ATCC; [2]): 19.2 µM
- GI50 (MDA-MB-231/ATCC; Homo sapiens, MDA-MB-231, 48 h, row head printed 231/ATCC (second line of MDA-MB-231/ATCC), read-out: GI50): 20.9 µM
- Log10GI50 (MDA-MB-231/ATCC): −4.72
- GI50 (KM12): 5.54 µM
- GI50 (T-47D): 10.7 µM
- GI50 (OVCAR-4): 6.67 µM
- GI50 (NCI-H23): 9.56 µM
- Log10GI50 (NCI-H23): −5.02 log10(M)
- GI50 (ACHN): 11.5 µM
- Log10GI50 (ACHN): −4.94
- GI50 (SN12C): 31.9 µM
- Log10GI50 (SN12C): −4.50
- cells in G2/M phase [1]: 24%
- GI50 (SF-268): 22.1 µM
- Log10GI50 (SF-268): −4.66
- GI50 (K-562): 3.57 µM
- Log10GI50 (K-562): −5.45
- GI50 (SK-MEL-5): 2.85 µM
- GI50 (SK-MEL-28): 31.6 µM
- Log10GI50 (SK-MEL-28): −4.50
- GI50 (OVCAR-8): 13.4 µM
- Log10GI50 (OVCAR-8): −4.87
- GI50 (SF-539): 22 µM
- Log10GI50 (SF-539): −4.66
- GI50 (RXF 393): 30.2 µM
- Log10GI50 (RXF 393): −4.52
- GI50 (U251; Homo sapiens, U-251, U251, 48 h): 5.44 µM
- Log10GI50 (U251): −5.26
- GI50 (HCT-116): 3.76 µM
- Log10GI50 (A498): >−4.0
- GI50 (A498): > 100 µM
- GI50 (SK-OV-3): 49.9 µM
- GI50 (UO-31): 1.94 µM
- Log10GI50 (UO-31): −5.71
- GI50 (NCI-H226): 21.7 µM
- GI50 (NCI-H322M): 86.5 µM
- GI50 (NCI/ADR-RES): 11 µM
- Log10GI50 (NCI/ADR-RES; [3]): −4.96
- Log10GI50 (NCI/ADR-RES; [4]): −4.30
- Log10GI50 (BT-549): −5.17
- GI50 (BT-549): 4.74 µM
- Log10GI50 (HL-60 (TB)): −5.61
- GI50 (HL-60 (TB)): 2.43 µM
- GI50 (UACC-257): 20.5 µM
- Log10GI50 (UACC-257): −4.69 log10(M)
- GI50 (NCI-H460): 7.46 µM
- GI50 (SNB-19): 19.7 µM
- Log10GI50 (SNB-19): −4.70
- GI50 (OVCAR-5): > 100 µM
- GI50 (OVCAR-3): 6.07 µM
- Log10GI50 (OVCAR-3): −5.22
- GI50 (SR): 7.14 µM

SMILES: COc1cc(-c2cncn2-c2ccc(-c3nc4ccc(F)cc4s3)cc2)ccc1F [Compound 4c, 6-Fluoro-2-(4-(5-(4-fluoro-3-methoxyphenyl)-1H-imidazol-1-yl)phenyl)benzo[d]thiazole]
- GI50 (MDA-MB-231/ATCC; [2]): 32.2 µM
- Log10GI50 (MDA-MB-231/ATCC): −4.49
- GI50 (MDA-MB-231/ATCC; listed as head printed 231/ATCC (second line of MDA-MB-231/ATCC)): —a
- GI50 (KM12): 6.4 µM
- GI50 (T-47D): 11.1 µM
- GI50 (OVCAR-4): 11.4 µM
- GI50 (NCI-H23): 8.25 µM
- Log10GI50 (NCI-H23): −5.08 log10(M)
- GI50 (ACHN): 29.1 µM
- Log10GI50 (ACHN): −4.54
- GI50 (SN12C): 31.9 µM
- Log10GI50 (SN12C): −4.50
- cells in G2/M phase [1]: 18%
- GI50 (SF-268): 12.7 µM
- Log10GI50 (SF-268): −4.51
- GI50 (K-562): 3.93 µM
- Log10GI50 (K-562): −5.41
- GI50 (SK-MEL-5): 12.1 µM
- GI50 (SK-MEL-28): 35.1 µM
- Log10GI50 (SK-MEL-28): −4.45
- GI50 (OVCAR-8): 15.2 µM
- Log10GI50 (OVCAR-8): −4.82
- GI50 (SF-539): > 100 µM
- Log10GI50 (SF-539): −4.12
- GI50 (RXF 393): 13.5 µM
- Log10GI50 (RXF 393): −4.87
- Log10GI50 (U251): −4.90
- GI50 (HCT-116): 4.36 µM
- Log10GI50 (A498): −7.36
- GI50 (A498): 0.0432 µM
- GI50 (SK-OV-3): > 100 µM
- GI50 (UO-31): 16.5 µM
- Log10GI50 (UO-31): −4.78
- GI50 (NCI-H226): 49.3 µM
- GI50 (NCI-H322M): 36.3 µM
- GI50 (NCI/ADR-RES): 30.6 µM
- Log10GI50 (NCI/ADR-RES; [3]): −4.51
- Log10GI50 (NCI/ADR-RES; [4]): >−4.0
- Log10GI50 (BT-549): −4.94
- GI50 (BT-549): 7.98 µM
- Log10GI50 (HL-60 (TB)): −5.60
- GI50 (HL-60 (TB)): 2.5 µM
- GI50 (UACC-257): 4.11 µM
- Log10GI50 (UACC-257): −5.39 log10(M)
- GI50 (NCI-H460): 5.7 µM
- GI50 (SNB-19): 20.6 µM
- Log10GI50 (SNB-19): >−4.0
- GI50 (OVCAR-5): > 100 µM
- GI50 (OVCAR-3): 5.71 µM
- Log10GI50 (OVCAR-3): −5.24
- GI50 (SR): 4.99 µM

— patent US9187467B2, “2-phenyl benzothiazole linked imidazole compounds as potential anticancer agents and process for the preparation thereof” (Council of Scientific and Industrial Research, priority 2012, dated 2015)
